For series [1] the following is noted: 101.33 kPa, Liquid; for viscosity: Capillary tube (Ostwald / Ubbelohde) method; for mass density: Vibrating tube method.
Series [2] in a line: xn = mol fraction of the nth substance listed. Conditions: 101 kPa, Liquid, x1 = 1; for viscosity: Capillary tube (Ostwald / Ubbelohde) method; for speed of sound: Frequency=2 MHz, Linear variable-path acoustic interferometer; for mass density: Vibrating tube method.

Among the data in the NIST ThermoML archive (doi:10.1016/j.fluid.2015.06.041) are viscosity, mass density and speed of sound values, retold here.

For orientation: viscosity means the internal friction of a fluid under shear. By mass density is commonly meant the mass of a sample divided by its volume. In general, speed of sound refers to how fast a sound wave travels through the sample.

Numbers after ± are expanded uncertainties.

In the case of `ClCCCl` [1,2-dichloroethane], the figures for the viscosity in series [1] (298.15 K), in series [1] (308.15 K) and in series [1] (318.15 K) were 0.7804 ± 0.024 mPa·s, 0.6744 ± 0.021 mPa·s and 0.5719 ± 0.017 mPa·s, respectively. Besides, the results for the mass density in series [1] (298.15 K), in series [1] (308.15 K) and in series [1] (318.15 K) were 1246.37 ± 0.17 kg/m3, 1231.21 ± 0.16 kg/m3 and 1214.55 ± 0.16 kg/m3, respectively.

As to `C1COCCO1` [1,4-dioxane], the viscosity in series [1] (298.15 K) is on record as 1.178 ± 0.036 mPa·s; in series [1] (308.15 K), 1.009 ± 0.031 mPa·s; in series [1] (318.15 K) it was 0.8896 ± 0.027 mPa·s. Further, the mass density in series [1] (298.15 K) is 1027.79 ± 0.11 kg/m3; in series [1] (308.15 K), 1016.78 ± 0.11 kg/m3; in series [1] (318.15 K), 1005.24 ± 0.11 kg/m3.

For `C1COCCO1` [1,4-dioxane] + ClCCCl, in series [2] (298.15 K), the viscosity is 1.178 ± 0.036 mPa·s, the speed of sound came to 1343.4 ± 1.4 m/s and the mass density is recorded as 1027.79 ± 0.11 kg/m3. For the same compound, in series [2] (308.15 K), the viscosity amounted to 1.009 ± 0.031 mPa·s and the mass density was determined as 1016.78 ± 0.11 kg/m3. Also, in series [2] (318.15 K), the viscosity was 0.8896 ± 0.027 mPa·s and the mass density was 1005.24 ± 0.11 kg/m3.

Consider `C1COCCO1` [1,4-dioxane] + NCCN, for which the speed of sound in series [2] (298.15 K) came to 1343.4 ± 1.4 m/s. The figures for the mass density in series [2] (298.15 K), in series [2] (308.15 K) and in series [2] (318.15 K) were 1027.79 ± 0.11 kg/m3, 1016.78 ± 0.11 kg/m3 and 1005.24 ± 0.11 kg/m3, respectively. The viscosity is 1.178 ± 0.036 mPa·s in series [2] (298.18 K), 1.009 ± 0.031 mPa·s in series [2] (308.15 K) and 0.8896 ± 0.027 mPa·s in series [2] (318.15 K).

For the compound `C1COCCO1` [1,4-dioxane] + NCCO, in series [2] (298.15 K), the viscosity is 1.178 ± 0.036 mPa·s, the speed of sound is 1343.4 ± 1.4 m/s and the mass density was 1027.79 ± 0.11 kg/m3. Besides, in series [2] (308.15 K), the viscosity was determined as 1.009 ± 0.031 mPa·s and the mass density was found to be 1016.78 ± 0.11 kg/m3. Further, in series [2] (318.15 K), the viscosity turned out to be 0.8896 ± 0.027 mPa·s and the mass density is given as 1005.24 ± 0.11 kg/m3.

For the compound `NCCO` [2-aminoethan-1-ol], the viscosity in series [1] (298.15 K) is 18.95 ± 0.58 mPa·s; in series [1] (308.15 K), 11.96 ± 0.37 mPa·s; in series [1] (318.15 K), 7.913 ± 0.24 mPa·s. For the same compound, the mass density is given as 1011.79 ± 0.24 kg/m3 in series [1] (298.15 K), 1004.68 ± 0.23 kg/m3 in series [1] (308.15 K) and 998.15 ± 0.23 kg/m3 in series [1] (318.15 K).

With `NCCN` [ethane-1,2-diamine], the viscosity turned out to be 1.276 ± 0.039 mPa·s in series [1] (298.15 K), 1.107 ± 0.034 mPa·s in series [1] (308.15 K) and 0.9445 ± 0.029 mPa·s in series [1] (318.15 K). In addition, the mass density was found to be 894.79 ± 0.23 kg/m3 in series [1] (298.15 K), 885.63 ± 0.24 kg/m3 in series [1] (308.15 K) and 867.62 ± 0.24 kg/m3 in series [1] (318.15 K).
